In ChEMBL document CHEMBL5465560, “Selectivity Literature for EUbOPEN Chemogenomic Library” (2024):

Assays:
[1] = target: LIM domain kinase 2 (Homo sapiens) (UniProt P53671); settings: at 10 µM
[2] = target: Serine/threonine-protein kinase MRCK alpha (Homo sapiens) (UniProt Q5VT25); experiment: Selectivity interaction (KinomeScan (DiscoverX)) EUB0000092b CDC42BPA; settings: at 10 µM
[3] = target: T1, Cyclin-dependent kinase 11A (Homo sapiens) (UniProt Q9UQ88); experiment: Selectivity interaction (KinomeScan (DiscoverX)) EUB0000092b CDK11A; settings: at 10 µM
T1 sequence (whole entry): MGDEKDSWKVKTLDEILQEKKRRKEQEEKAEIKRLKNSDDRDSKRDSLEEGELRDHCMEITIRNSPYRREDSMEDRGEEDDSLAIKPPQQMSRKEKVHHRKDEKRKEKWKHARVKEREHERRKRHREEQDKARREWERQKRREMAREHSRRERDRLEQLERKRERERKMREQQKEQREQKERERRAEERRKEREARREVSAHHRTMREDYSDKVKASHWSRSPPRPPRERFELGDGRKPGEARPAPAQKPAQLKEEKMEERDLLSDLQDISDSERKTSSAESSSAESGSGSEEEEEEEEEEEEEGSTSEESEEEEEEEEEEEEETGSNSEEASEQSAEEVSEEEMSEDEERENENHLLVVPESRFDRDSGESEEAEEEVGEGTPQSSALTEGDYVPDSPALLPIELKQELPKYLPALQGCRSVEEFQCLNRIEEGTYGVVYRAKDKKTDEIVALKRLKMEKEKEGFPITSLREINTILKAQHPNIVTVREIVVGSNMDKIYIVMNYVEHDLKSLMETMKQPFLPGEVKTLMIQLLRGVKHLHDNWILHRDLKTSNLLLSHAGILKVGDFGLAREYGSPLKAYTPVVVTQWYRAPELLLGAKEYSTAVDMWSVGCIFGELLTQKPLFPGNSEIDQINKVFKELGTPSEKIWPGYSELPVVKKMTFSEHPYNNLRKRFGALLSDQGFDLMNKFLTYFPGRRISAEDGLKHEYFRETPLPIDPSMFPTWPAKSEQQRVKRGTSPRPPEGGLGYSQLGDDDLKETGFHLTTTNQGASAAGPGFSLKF

[4] = target: Atypical kinase COQ8A, mitochondrial (Homo sapiens, UniProt Q8NI60); experiment: Selectivity interaction (KinomeScan (DiscoverX)) EUB0000655a ADCK3; settings: at 10 µM
[5] = target: [Pyruvate dehydrogenase (acetyl-transferring)] kinase isozyme 1, mitochondrial (Homo sapiens, UniProt Q15118); experiment: Selectivity interaction (Kinase panel (Z-LYTE Assay)) EUB0001632a PDK1; settings: at 10 µM
[6] = target: Glycogen synthase kinase-3 alpha (Homo sapiens, UniProt P49840); experiment: Selectivity interaction (KinomeScan (DiscoverX)) EUB0001049a GSK3A; settings: at 1 µM
[7] = target: T2, Mitogen-activated protein kinase kinase kinase 6 (Homo sapiens) (UniProt O95382); experiment: Selectivity interaction (KinomeScan (DiscoverX)) EUB0000595a MAP3K6; settings: at 10 µM
T2 sequence (whole entry): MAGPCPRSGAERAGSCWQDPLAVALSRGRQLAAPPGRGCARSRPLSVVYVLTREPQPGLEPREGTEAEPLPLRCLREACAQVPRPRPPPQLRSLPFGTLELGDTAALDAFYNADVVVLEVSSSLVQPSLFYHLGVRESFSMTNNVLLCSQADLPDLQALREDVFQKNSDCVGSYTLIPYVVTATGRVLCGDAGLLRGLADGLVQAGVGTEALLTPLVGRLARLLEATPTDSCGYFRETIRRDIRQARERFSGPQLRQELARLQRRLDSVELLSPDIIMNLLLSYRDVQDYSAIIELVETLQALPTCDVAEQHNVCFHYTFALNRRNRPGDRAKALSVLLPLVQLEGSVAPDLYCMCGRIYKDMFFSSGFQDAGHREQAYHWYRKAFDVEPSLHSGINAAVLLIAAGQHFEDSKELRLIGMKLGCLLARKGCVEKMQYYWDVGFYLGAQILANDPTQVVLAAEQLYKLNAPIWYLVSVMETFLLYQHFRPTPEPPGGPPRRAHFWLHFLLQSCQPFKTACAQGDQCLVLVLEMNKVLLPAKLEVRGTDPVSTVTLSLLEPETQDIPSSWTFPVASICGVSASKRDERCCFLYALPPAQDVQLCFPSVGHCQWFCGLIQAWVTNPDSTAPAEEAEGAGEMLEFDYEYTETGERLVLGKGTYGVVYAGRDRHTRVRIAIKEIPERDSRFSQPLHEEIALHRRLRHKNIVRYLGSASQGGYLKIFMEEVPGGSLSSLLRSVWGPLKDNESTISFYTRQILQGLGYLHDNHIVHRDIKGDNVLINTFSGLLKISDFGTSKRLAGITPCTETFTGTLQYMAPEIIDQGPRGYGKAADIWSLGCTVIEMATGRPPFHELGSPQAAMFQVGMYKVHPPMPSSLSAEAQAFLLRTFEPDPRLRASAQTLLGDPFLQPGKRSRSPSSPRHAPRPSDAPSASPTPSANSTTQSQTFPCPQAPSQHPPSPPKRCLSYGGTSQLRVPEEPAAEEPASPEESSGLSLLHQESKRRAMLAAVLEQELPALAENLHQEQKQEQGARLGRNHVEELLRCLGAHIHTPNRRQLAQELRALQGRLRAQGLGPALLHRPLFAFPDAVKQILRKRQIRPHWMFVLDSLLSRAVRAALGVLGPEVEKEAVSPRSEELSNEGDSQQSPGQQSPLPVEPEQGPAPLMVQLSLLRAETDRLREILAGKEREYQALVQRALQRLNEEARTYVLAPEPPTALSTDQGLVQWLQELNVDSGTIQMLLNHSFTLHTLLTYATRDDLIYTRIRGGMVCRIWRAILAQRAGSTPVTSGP

[8] = target: Dual specificity mitogen-activated protein kinase kinase 2 (Homo sapiens) (UniProt P36507); experiment: Selectivity interaction (KinomeScan (DiscoverX)) EUB0000045b MAP2K2
[9] = target: Serine/threonine-protein kinase 10 (Homo sapiens) (UniProt O94804); experiment: Selectivity interaction (KinomeScan (DiscoverX)) EUB0000045b STK10
[10] = target: Mitogen-activated protein kinase kinase kinase 10 (Homo sapiens) (UniProt Q02779); experiment: Selectivity interaction (Ambit KINOMEscan and KiNATiv profiling in Jurkat cells) EUB0000090b MAP3K10; format: cell-based; settings: at 1 µM
[11] = target: 5'-AMP-activated protein kinase catalytic subunit alpha-1 (Homo sapiens, UniProt Q13131); experiment: Selectivity interaction (KinomeScan (DiscoverX)) EUB0001619a PRKAA1; settings: at 1 µM

Chain of Serine/threonine-protein kinase 10 (Homo sapiens) (O94804 whole entry, looked up): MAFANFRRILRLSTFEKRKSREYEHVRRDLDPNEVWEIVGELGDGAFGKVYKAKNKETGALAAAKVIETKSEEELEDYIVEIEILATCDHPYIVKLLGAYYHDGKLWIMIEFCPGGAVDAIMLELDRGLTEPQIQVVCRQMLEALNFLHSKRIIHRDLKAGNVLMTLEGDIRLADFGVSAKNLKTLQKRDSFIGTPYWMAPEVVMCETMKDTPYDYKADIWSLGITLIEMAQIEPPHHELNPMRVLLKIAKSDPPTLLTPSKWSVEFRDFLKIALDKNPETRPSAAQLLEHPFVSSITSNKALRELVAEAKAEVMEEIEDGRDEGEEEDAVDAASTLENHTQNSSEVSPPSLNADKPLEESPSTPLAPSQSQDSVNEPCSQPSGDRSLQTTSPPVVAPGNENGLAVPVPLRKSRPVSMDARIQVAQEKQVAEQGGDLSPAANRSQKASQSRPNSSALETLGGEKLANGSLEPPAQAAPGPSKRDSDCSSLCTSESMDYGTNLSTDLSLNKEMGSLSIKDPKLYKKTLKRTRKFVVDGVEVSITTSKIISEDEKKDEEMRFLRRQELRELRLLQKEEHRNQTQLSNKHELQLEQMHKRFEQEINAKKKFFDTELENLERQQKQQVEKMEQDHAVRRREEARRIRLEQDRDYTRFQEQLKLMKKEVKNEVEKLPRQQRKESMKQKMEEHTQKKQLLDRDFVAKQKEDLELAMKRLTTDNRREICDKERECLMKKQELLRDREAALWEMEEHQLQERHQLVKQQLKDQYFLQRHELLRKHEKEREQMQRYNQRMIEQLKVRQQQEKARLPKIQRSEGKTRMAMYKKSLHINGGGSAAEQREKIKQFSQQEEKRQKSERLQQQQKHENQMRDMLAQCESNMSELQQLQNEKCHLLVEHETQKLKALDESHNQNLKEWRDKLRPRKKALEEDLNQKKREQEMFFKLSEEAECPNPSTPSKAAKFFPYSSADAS
Chain of Dual specificity mitogen-activated protein kinase kinase 2 (Homo sapiens) (P36507 whole entry): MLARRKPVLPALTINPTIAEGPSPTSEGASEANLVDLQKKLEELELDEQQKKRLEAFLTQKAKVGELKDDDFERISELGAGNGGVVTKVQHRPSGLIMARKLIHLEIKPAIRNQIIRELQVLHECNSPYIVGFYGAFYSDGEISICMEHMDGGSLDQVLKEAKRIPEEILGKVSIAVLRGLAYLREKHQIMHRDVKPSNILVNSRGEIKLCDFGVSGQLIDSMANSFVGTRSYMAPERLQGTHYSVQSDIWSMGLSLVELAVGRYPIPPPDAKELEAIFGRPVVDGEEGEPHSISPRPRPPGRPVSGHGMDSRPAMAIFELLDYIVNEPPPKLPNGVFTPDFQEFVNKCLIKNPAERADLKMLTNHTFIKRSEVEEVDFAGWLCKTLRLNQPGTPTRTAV
Chain of Serine/threonine-protein kinase MRCK alpha (Homo sapiens) (Q5VT25 whole entry): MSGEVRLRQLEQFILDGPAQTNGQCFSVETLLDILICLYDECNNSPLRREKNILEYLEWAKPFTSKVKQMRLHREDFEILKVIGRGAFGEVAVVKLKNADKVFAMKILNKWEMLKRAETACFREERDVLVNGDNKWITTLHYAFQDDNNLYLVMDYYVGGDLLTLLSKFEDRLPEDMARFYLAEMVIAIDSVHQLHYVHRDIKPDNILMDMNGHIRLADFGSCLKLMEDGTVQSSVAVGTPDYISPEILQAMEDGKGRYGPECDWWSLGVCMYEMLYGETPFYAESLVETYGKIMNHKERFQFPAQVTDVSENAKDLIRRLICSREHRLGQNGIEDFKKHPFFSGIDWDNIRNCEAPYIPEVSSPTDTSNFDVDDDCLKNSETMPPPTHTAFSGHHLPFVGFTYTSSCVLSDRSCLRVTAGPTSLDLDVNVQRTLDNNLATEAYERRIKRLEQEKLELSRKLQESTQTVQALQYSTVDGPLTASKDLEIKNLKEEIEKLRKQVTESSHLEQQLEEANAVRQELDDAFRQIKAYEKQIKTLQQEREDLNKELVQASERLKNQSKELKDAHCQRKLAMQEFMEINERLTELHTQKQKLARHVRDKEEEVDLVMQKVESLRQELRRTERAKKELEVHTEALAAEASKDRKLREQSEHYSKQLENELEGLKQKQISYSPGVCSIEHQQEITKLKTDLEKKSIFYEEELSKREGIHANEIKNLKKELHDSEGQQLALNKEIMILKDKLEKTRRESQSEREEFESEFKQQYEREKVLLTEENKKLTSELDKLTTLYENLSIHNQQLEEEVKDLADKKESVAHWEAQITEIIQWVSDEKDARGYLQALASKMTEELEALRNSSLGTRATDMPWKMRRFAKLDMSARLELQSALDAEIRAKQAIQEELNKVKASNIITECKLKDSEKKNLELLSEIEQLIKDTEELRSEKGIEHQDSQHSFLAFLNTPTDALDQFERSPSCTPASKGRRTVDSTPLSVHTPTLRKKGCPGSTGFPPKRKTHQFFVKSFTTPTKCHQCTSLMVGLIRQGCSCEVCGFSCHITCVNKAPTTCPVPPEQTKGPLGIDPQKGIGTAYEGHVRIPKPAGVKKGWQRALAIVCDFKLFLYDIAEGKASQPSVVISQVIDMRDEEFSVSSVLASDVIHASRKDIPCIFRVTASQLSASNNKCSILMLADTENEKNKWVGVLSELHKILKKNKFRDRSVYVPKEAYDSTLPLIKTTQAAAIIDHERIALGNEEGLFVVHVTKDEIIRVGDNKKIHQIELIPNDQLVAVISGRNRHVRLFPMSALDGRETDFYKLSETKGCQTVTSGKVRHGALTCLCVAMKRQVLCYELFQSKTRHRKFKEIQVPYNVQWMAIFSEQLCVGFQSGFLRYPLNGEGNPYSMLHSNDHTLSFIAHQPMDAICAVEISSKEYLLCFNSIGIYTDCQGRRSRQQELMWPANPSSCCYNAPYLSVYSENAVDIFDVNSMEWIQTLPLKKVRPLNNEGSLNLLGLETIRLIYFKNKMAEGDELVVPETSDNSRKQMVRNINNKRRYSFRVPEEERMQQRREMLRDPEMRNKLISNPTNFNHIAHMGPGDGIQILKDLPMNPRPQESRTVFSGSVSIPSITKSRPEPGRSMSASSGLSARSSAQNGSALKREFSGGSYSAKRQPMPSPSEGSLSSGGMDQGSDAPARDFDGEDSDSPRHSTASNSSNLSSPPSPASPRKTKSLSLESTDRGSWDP
Chain of LIM domain kinase 2 (Homo sapiens) (P53671 whole entry, looked up, the tested form may be a part): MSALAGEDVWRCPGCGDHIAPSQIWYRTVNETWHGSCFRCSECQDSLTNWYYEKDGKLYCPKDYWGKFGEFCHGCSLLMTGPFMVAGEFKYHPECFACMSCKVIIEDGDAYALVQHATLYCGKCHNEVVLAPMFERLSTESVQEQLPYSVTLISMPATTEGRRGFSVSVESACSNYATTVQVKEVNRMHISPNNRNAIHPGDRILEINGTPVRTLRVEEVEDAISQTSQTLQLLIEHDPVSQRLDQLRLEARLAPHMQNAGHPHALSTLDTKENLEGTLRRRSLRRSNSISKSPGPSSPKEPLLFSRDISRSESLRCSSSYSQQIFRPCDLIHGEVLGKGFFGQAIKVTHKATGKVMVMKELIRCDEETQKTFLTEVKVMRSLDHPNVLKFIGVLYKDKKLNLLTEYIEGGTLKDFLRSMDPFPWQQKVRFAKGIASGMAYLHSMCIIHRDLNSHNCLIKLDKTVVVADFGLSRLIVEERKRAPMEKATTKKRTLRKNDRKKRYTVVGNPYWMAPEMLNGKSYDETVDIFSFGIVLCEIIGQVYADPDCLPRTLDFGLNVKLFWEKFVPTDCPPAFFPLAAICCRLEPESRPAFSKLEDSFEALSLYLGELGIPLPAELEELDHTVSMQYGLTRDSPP
Chain of Mitogen-activated protein kinase kinase kinase 10 (Homo sapiens) (Q02779 whole entry, looked up): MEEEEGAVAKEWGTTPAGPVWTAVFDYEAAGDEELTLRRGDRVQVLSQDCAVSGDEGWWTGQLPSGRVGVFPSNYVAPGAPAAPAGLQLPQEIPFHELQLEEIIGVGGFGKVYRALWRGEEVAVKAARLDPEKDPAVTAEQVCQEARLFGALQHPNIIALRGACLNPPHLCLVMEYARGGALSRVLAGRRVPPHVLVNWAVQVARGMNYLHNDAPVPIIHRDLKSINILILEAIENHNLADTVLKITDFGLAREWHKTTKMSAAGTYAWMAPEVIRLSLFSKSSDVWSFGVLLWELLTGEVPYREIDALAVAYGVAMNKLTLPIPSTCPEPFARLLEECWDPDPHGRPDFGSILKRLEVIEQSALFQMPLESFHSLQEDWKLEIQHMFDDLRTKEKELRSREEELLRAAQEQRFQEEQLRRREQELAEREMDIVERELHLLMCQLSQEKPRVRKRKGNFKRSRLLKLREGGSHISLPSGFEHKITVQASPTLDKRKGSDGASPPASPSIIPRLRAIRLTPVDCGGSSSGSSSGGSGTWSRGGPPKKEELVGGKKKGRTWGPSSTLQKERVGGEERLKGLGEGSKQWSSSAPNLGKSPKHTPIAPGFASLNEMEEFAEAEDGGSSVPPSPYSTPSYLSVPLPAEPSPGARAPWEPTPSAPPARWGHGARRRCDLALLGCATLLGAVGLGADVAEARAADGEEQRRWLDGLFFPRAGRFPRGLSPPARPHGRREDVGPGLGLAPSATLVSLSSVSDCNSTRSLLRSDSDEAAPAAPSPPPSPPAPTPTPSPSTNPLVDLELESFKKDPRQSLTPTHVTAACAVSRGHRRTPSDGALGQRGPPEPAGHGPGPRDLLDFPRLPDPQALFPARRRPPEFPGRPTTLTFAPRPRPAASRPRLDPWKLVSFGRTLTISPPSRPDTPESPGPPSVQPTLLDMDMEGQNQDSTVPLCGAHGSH

Question: CCN(CC)CCCCNc1ncc2cc(-c3cc(OC)cc(OC)c3)c(NC(=O)NC(C)(C)C)nc2n1 was tested. Which % of control [1] did it give?
Answer: 100%

Question: CCC(=O)N1CCN(c2ccc(-n3c(=O)ccc4cnc5ccc(-c6cnc7ccccc7c6)cc5c43)cc2C(F)(F)F)CC1 was tested. Which % of control [2] did it give?
Answer: 0.7%

Question: What about the % of control [3] of the same compound?
Answer: 1.2%

Question: How did the % of control [4] turn out when CN(C)CCOc1ccc(-c2nc(-c3ccncc3)c(-c3ccc4c(c3)CC/C4=N\O)[nH]2)cc1 was run?
Answer: 7%

Question: Which % of control [5] does the source give for Cn1cc(-n2cnc3c(NCc4nc5cc(Cl)c(Cl)cc5[nH]4)nc(N4CCOCC4)nc32)cn1 here?
Answer: 9.23%

Question: For COc1cc(Nc2nc(C)cc(-c3cnn4nc(OC)ccc34)n2)cc(C(F)(F)F)c1, which % of control [6] is on record?
Answer: 100%

Question: How did the % of control [7] turn out when COCC(=O)NC/C=C/c1ccc2ncnc(Nc3ccc(Oc4ccc(C)nc4)c(C)c3)c2c1 [CP-724714] was run?
Answer: 100%

Question: For C=CC(=O)Nc1cc(-n2c(=O)ccc3cnc4ccc(-c5ccc(NS(C)(=O)=O)cc5)cc4c32)ccc1C, which % of control ([8]; at 1 µM) is on record?
Answer: 96%

Question: And the % of control ([8]; at 10 µM)?
Answer: 66%

Question: And the % of control ([9]; at 1 µM)?
Answer: 87%

Question: What about the % of control ([9]; at 10 µM) of the same compound?
Answer: 100%

Question: How did the % of control [10] turn out when CN(C)C/C=C/C(=O)Nc1ccc(C(=O)N2CCCC(Nc3ncc(Cl)c(-c4c[nH]c5ccccc45)n3)C2)cc1 (stereo not drawn) was run?
Answer: 100%

Question: N#Cc1cccc(-c2c[nH]c3ncnc(N4CCOCC4)c23)c1 was tested. Which % of control [11] did it give?
Answer: 71%
